Test results as given in US4559323A, “A41030 Antibiotics” (Eli Lilly and Company, priority 1984, dated 1985).
Where two headings read alike, the source gives them in different places.

Assays:
Fusobacterium symbiosum = test: Agar-dilution MIC (anaerobes); type: cell-based; conditions: Table 14; Fusobacterium symbiosum 1470
Clostridium difficile [1] = type: cell-based
From the text: The A41030 antibiotic factors A, B, C, D, E, F, and G, are also active against a number of strains of Clostridium difficile, as determined by the agar-dilution method.

[2] = Electrometric titration (pKa); type: physicochemical; conditions: electrometric titration in 66% dimethylformamide in water
Peptococcus prevoti = test: Agar-dilution MIC (anaerobes); type: cell-based; conditions: Table 14; Peptococcus prevoti 1281
[3] = tested on: Streptococcus sp. (Group D); test: Agar-dilution MIC; type: cell-based; conditions: Table 17, 24 hours
From the text: (§1) The agar-dilution procedure described by the International Collaborative study (ICS) group was used to determine the minimum inhibitory concentrations (MIC's).

[4] = tested on: Staphylococcus epidermidis; test: Agar-dilution MIC; type: cell-based; conditions: Table 17, 24 hours
From the text: as §1

Streptococcus pyogenes = test: Agar-dilution MIC; type: cell-based; conditions: Table 17; 24 hours; Streptococcus pyogenes C203
From the text: as §1

Streptococcus pneumoniae = test: Agar-dilution MIC; type: cell-based; conditions: Table 17; 24 hours; Streptococcus pneumoniae Park I
From the text: as §1

Eubacterium aerofaciens = test: Agar-dilution MIC (anaerobes); type: cell-based; conditions: Table 14; Eubacterium aerofaciens 1235
B. thetaiotaomicron = type: cell-based; conditions: Table 14; Bacteroides thetalotaomicron 1438
From the text: as §1

Propionibacterium acnes = test: Agar-dilution MIC (anaerobes); type: cell-based; conditions: Table 14; Propionibacterium acnes 79
From the text: Antibiotic A41030 factors A, B and C have also been tested and found to be active against a genus of anaerobic bacteria identified as Propionibacterium acnes.

Staphylococcus aureus = test: Agar-dilution MIC; type: cell-based; conditions: Table 17, 24 hours
S. pyogenes = test: Experimental bacterial infection in mice, subcutaneous ED50; type: in vivo; conditions: two doses subcutaneously
Procedure: (§2) All of the A41030 factors tested have shown in vivo antimicrobial activity against experimental bacterial infections. When two doses of test compound were administered subcutaneously to mice in illustrative infections, the activity observed is measured as an ED50 value [effective dose in mg./kg. to protect fifty percent of the test animals: See Warren Wick, et al., J. Bacteriol. 81, 233-235 (1961)].

Staph. aureus = test: as above; type: in vivo; conditions: two doses subcutaneously
Procedure: as §2

S. pneumoniae = test: as above; type: in vivo; conditions: two doses subcutaneously
Procedure: as §2

Bacteroides corrodens = test: Agar-dilution MIC (anaerobes); type: cell-based; conditions: Table 14; Bacteroides corrodens 1874
Clostridium perfringens = type: cell-based; conditions: Table 14; Clostridium perfringens 81
Bacteroides fragilis = test: Agar-dilution MIC (anaerobes); type: cell-based; conditions: Table 14
From the text: as §1

Hemophilus influenzae = test: Agar-dilution MIC; type: cell-based; conditions: Table 17, 24 hours
Salmonella typhi = test: Agar-dilution MIC; type: cell-based; conditions: Table 17, 24 hours
Solubility in solvents = type: physicochemical; conditions: solvents as named
From the text: The seven antibiotic factors are recovered from the fermentation and are obtained as a mixture, the A41030 complex. It will be recognized that the ratio of the factors in the A41030 complex will vary, depending upon the fermentation conditions used. The individual factors […], and G are separated and isolated as individual compounds, as hereinafter described.

[5] = tested on: Peptostreptococcus anaerobius; test: Agar-dilution MIC (anaerobes); type: cell-based; conditions: Table 14; Peptostreptococcus anaerobius 1428
[6] = tested on: Peptococcus asaccharolyticus; test: Agar-dilution MIC (anaerobes); type: cell-based; conditions: Table 14; Peptococcus asaccharolyticus 1302
Clostridium septicum = test: Agar-dilution MIC (anaerobes); type: cell-based; conditions: Table 14; Clostridium septicum 1128
[7] = tested on: Peptostreptococcus intermedius; test: Agar-dilution MIC (anaerobes); type: cell-based; conditions: Table 14; Peptostreptococcus intermedius 1264
[8] = tested on: Bacteroides melaninogenicus; test: Agar-dilution MIC (anaerobes); type: cell-based; conditions: Table 14; Bacteroides melaninogenicus 2736
Bacteroides vulgatis = test: Agar-dilution MIC (anaerobes); type: cell-based; conditions: Table 14; Bacteroides vulgatis 1211
[9] = tested on: Fusobacterium necrophorum; test: Agar-dilution MIC (anaerobes); type: cell-based; conditions: Table 14; Fusobacterium necrophorum 6054A
Clostridium difficile [10] = type: cell-based; conditions: Table 14; Clostridium difficile 2994
Klebsiella pneumoniae = test: Agar-dilution MIC; type: cell-based; conditions: Table 17; 24 hours; Klebsiella pneumoniae X26
[11] = Table 16, C. difficile WAL-2112
[12] = Table 16, C. difficile WAL-3657
[13] = Table 16, C. difficile WAL-4268
[14] = Staphylococcus epidermidis EPI1

Substance: A41030 factor F
- MIC (Fusobacterium symbiosum): 1.0 µg/mL
- MIC (Clostridium difficile [1]): 1 µg/mL
- MIC (Clostridium difficile [1]; Table 16, C. difficile 78): 1.0 µg/mL
- MIC (Clostridium difficile [1]; Table 16, C. difficile 107B): 1.0 µg/mL
- MIC (Clostridium difficile [1]; Table 16, C. difficile 111F): 2 µg/mL
- MIC (Clostridium difficile [1]; Table 16, C. difficile 1153): 2 µg/mL
- MIC (Clostridium difficile [1]; Table 16, C. difficile 2634): 2 µg/mL
- MIC (Clostridium difficile [1]; Table 16, C. difficile 3424-5B): 1.0 µg/mL
- MIC (Clostridium difficile [1]; Table 16, C. difficile 3816): 1.0 µg/mL
- MIC (Clostridium difficile [1]; Table 16, C. difficile 3950): 1.0 µg/mL
- MIC (Clostridium difficile [1]; Table 16, C. difficile 6890): 1.0 µg/mL
- MIC (Clostridium difficile [1]; Table 16, C. difficile 8484): 1.0 µg/mL
- MIC (Clostridium difficile [1]; Table 16, C. difficile A-194): 1.0 µg/mL
- MIC (Clostridium difficile [1]; Table 16, C. difficile A-195): 1.0 µg/mL
- MIC (Clostridium difficile [1]; Table 16, C. difficile A-196): 2 µg/mL
- MIC (Clostridium difficile [1]; Table 16, C. difficile A-279): 1.0 µg/mL
- MIC (Clostridium difficile [1]; Table 16, C. difficile A-280): 1.0 µg/mL
- MIC (Clostridium difficile [1]; Table 16, C. difficile A-281): 2 µg/mL
- MIC (Clostridium difficile [1]; [11]): 1.0 µg/mL
- MIC (Clostridium difficile [1]; [12]): 1.0 µg/mL
- MIC (Clostridium difficile [1]; [13]): 1.0 µg/mL
- pKa, first titratable group [2]: about 5.4
- pKa, second titratable group [2]: ~7.1
- MIC (Peptococcus prevoti): 32 µg/mL
- MIC ([3]; Streptococcus sp. Group D 9960): 4 µg/mL
- MIC ([3]; Streptococcus sp. Group D X66): 4 µg/mL
- MIC [4, 14]: 0.25 µg/mL
- MIC (Streptococcus pyogenes): 2 µg/mL
- MIC (Streptococcus pneumoniae): 2 µg/mL
- MIC (Eubacterium aerofaciens): 1.0 µg/mL
- MIC (B. thetaiotaomicron): 64 µg/mL
- MIC (Propionibacterium acnes): 1.0 µg/mL
- MIC (Staphylococcus aureus; Staphylococcus aureus 3055): 0.5 µg/mL
- MIC (Staphylococcus aureus; Staphylococcus aureus S13E): 1 µg/mL
- MIC (Staphylococcus aureus; Staphylococcus aureus V41): 0.5 µg/mL
- MIC (Staphylococcus aureus; Staphylococcus aureus X400): 1 µg/mL
- ED50 (S. pyogenes): > 5.0 mg/kg
- ED50 (Staph. aureus): < 0.31 mg/kg
- ED50 (S. pneumoniae): > 5.0 mg/kg
- MIC (Bacteroides corrodens): 32 µg/mL
- MIC (Clostridium perfringens): 1.0 µg/mL
- MIC (Bacteroides fragilis; Bacteroides fragilis 111): 32 µg/mL
- MIC (Bacteroides fragilis; Bacteroides fragilis 1877): 32 µg/mL
- MIC (Bacteroides fragilis; Bacteroides fragilis 1936B): 32 µg/mL
- MIC (Hemophilus influenzae; Haemophilus influenzae 76): 32 µg/mL
- MIC (Hemophilus influenzae; Haemophilus influenzae C.L.): 32 µg/mL
- MIC (Salmonella typhi; Salmonella typhi 1335): > 128 µg/mL
- MIC (Salmonella typhi; Salmonella typhi X514): > 128 µg/mL
- Solubility (Solubility in solvents): soluble in the same solvents as factor A
- MIC [5]: 32 µg/mL
- MIC [6]: ≤ 0.25 µg/mL
- MIC (Clostridium septicum): 1.0 µg/mL
- MIC [7]: 1.0 µg/mL
- MIC [8]: 1.0 µg/mL
- MIC (Bacteroides vulgatis): 32 µg/mL
- MIC [9]: 1.0 µg/mL

Substance: A41030 factor G
- MIC (Fusobacterium symbiosum): 2 µg/mL
- MIC (Clostridium difficile [10]): 2 µg/mL
- MIC (Clostridium difficile [1]; Table 16, C. difficile 78): 1.0 µg/mL
- MIC (Clostridium difficile [1]; Table 16, C. difficile 107B): 1.0 µg/mL
- MIC (Clostridium difficile [1]; Table 16, C. difficile 111F): 1.0 µg/mL
- MIC (Clostridium difficile [1]; Table 16, C. difficile 1153): 1.0 µg/mL
- MIC (Clostridium difficile [1]; Table 16, C. difficile 2634): 1.0 µg/mL
- MIC (Clostridium difficile [1]; Table 16, C. difficile 3424-5B): 1.0 µg/mL
- MIC (Clostridium difficile [1]; Table 16, C. difficile 3816): 1.0 µg/mL
- MIC (Clostridium difficile [1]; Table 16, C. difficile 3950): 1.0 µg/mL
- MIC (Clostridium difficile [1]; Table 16, C. difficile 6890): 1.0 µg/mL
- MIC (Clostridium difficile [1]; Table 16, C. difficile 8484): 1.0 µg/mL
- MIC (Clostridium difficile [1]; Table 16, C. difficile A-194): 1.0 µg/mL
- MIC (Clostridium difficile [1]; Table 16, C. difficile A-195): 1.0 µg/mL
- MIC (Clostridium difficile [1]; Table 16, C. difficile A-196): 1.0 µg/mL
- MIC (Clostridium difficile [1]; Table 16, C. difficile A-279): 1.0 µg/mL
- MIC (Clostridium difficile [1]; Table 16, C. difficile A-280): 1.0 µg/mL
- MIC (Clostridium difficile [1]; Table 16, C. difficile A-281): 1.0 µg/mL
- MIC (Clostridium difficile [1]; [11]): 1.0 µg/mL
- MIC (Clostridium difficile [1]; [12]): 1.0 µg/mL
- MIC (Clostridium difficile [1]; [13]): 1.0 µg/mL
- pKa, first titratable group [2]: about 5.4
- pKa, second titratable group [2]: ~7.0
- MIC (Peptococcus prevoti): 2 µg/mL
- MIC ([3]; Streptococcus sp. Group D 9960): 4 µg/mL
- MIC ([3]; Streptococcus sp. Group D X66): 4 µg/mL
- MIC [4, 14]: 0.5 µg/mL
- MIC ([4]; Staphylococcus epidermidis EPI2): 0.5 µg/mL
- MIC (Streptococcus pyogenes): 2 µg/mL
- MIC (Streptococcus pneumoniae): 2 µg/mL
- MIC (Eubacterium aerofaciens): 2 µg/mL
- MIC (B. thetaiotaomicron): 64 µg/mL
- MIC (Propionibacterium acnes): 1.0 µg/mL
- MIC (Bacteroides corrodens): 32 µg/mL
- MIC (Clostridium perfringens): 2 µg/mL
- MIC (Bacteroides fragilis; Bacteroides fragilis 111): 32 µg/mL
- MIC (Bacteroides fragilis; Bacteroides fragilis 1877): 32 µg/mL
- MIC (Bacteroides fragilis; Bacteroides fragilis 1936B): 64 µg/mL
- MIC (Hemophilus influenzae; Haemophilus influenzae 76): 32 µg/mL
- MIC (Hemophilus influenzae; Haemophilus influenzae C.L.): 32 µg/mL
- MIC (Salmonella typhi; Salmonella typhi 1335): > 128 µg/mL
- MIC (Salmonella typhi; Salmonella typhi X514): > 128 µg/mL
- Solubility (Solubility in solvents): soluble in the same solvents as is factor A
- MIC [5]: ≤ 0.5 µg/mL
- MIC [6]: 1.0 µg/mL
- MIC (Clostridium septicum): 2 µg/mL
- MIC [7]: 2 µg/mL
- MIC [8]: 64 µg/mL
- MIC (Klebsiella pneumoniae): 64 µg/mL
- MIC (Bacteroides vulgatis): 64 µg/mL
- MIC [9]: 2 µg/mL
